Reference: patent US20250002475A1 (EPICS THERAPEUTICS, priority 2023, published 2025)

Assays:
[1] = target: T1, recombinant METTL3/METTL14 complex (Homo sapiens, UniProt Q86U44); assay: METTL3/14 Scintillation Proximity Assay (SPA), RNA methyltransferase activity; format: biochemical; conditions: 5.31 nM METTL3/14 complex, 250 nM RNA substrate, 1 μM 3H-SAM, 90 min; for compounds marked * best of the two separated forms
T1 construct: purchased Active Motif 311970; host or cells: Sf9 cells

Caov-3 cells = assay: Caov-3 cellular viability assay (ATP-Lite, 72 h); format: cell-based; conditions: Homo sapiens, ATP-Lite luminescence, % viability relative to DMSO
How it was run: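 10000 cells/well treated 72 h at 37 °C, 5% CO2, in RPMI-1640 with 10% FBS and 0.1% DMSO final. Viability by ATP-Lite One Step luminescence. Expressed as % of DMSO control, with IC50 from each compound's concentration-response curve.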

Kasumi-1 cells = assay: Kasumi-1 cellular viability assay (ATP-Lite, 72 h); format: cell-based; conditions: Homo sapiens, ATP-Lite luminescence, % viability relative to DMSO
How it was run: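 Kasumi-1 AML cells, 15000/well in RPMI-1640 with 10% FBS, were exposed to compound titrations (0.1% final DMSO) for 72 h at 37 °C, 5% CO2. ATP-Lite One Step luminescence gave % viability versus DMSO control, and IC50 came from the concentration-response.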

T1 sequence (Q86U44 whole entry): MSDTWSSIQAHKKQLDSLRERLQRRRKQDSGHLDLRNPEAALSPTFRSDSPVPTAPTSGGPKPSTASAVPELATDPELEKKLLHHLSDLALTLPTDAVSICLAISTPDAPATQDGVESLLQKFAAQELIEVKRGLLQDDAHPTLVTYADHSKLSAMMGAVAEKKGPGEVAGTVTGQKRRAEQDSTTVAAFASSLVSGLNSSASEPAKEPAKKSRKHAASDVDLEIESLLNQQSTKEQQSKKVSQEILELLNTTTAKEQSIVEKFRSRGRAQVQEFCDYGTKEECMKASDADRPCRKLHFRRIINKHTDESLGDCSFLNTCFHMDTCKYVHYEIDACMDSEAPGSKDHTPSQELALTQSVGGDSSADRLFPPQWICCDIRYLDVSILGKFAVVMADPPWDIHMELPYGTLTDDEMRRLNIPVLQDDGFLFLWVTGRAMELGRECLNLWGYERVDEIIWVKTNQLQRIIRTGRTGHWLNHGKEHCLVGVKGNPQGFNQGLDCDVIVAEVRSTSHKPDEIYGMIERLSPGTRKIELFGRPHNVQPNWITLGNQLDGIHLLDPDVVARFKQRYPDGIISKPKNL
T1 sequence (Q9HCE5 whole entry partner): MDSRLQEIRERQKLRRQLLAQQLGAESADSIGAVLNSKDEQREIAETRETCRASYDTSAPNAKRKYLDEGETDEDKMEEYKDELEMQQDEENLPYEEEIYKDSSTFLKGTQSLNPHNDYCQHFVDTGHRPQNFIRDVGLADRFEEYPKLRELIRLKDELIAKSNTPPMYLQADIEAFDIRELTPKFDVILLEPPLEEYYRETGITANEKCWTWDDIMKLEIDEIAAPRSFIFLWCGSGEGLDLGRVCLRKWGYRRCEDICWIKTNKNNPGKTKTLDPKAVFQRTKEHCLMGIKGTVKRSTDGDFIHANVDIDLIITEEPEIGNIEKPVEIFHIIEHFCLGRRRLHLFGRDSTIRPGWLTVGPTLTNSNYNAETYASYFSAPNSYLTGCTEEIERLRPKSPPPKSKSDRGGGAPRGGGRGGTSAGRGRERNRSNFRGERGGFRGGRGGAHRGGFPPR

Row | IC50 [1] [nM] | Structure (SMILES) | IC50 (Caov-3 cells) [nM] | IC50 (Kasumi-1 cells) [nM]
1 | ≤ 50 | O=C(Nc1cc(=O)n2ccccc2n1)C1(c2ccc(N3CCC[C@@H](NCC4(C(F)(F)F)CCC4)C3)cn2)COC1 [Compound 337, (R)-N-(4-oxo-4H-pyrido[1,2-a]pyrimidin-2-yl)-3-(5-(3-(((1-(trifluoromethyl)cyclobutyl)methyl)amino)piperidin-1-yl)pyridin-2-yl)oxetane-3-carboxamide] | ≤ 500 | 500 to 5000
2 | ≤ 50 | O=C(Nc1cc(=O)n2ccccc2n1)C1(c2ccc(N3CCC[C@@H](NCC4CC(F)(F)C4)C3)cn2)COC1 [Compound 338, (R)-3-(5-(3-(((3,3-difluorocyclobutyl)methyl)amino)piperidin-1-yl)pyridin-2-yl)-N-(4-oxo-4H-pyrido[1,2-a]pyrimidin-2-yl)oxetane-3-carboxamide] | ≤ 500 | ≤ 500
3 | ≤ 50 | FC(F)(F)C1(CN[C@@H]2CCCN(c3ccc(C4(n5cc(-c6cncc(C7CC7)c6)nn5)COC4)nc3)C2)CCC1 [Compound 339, (R)-1-(6-(3-(4-(5-cyclopropylpyridin-3-yl)-1H-1,2,3-triazol-1-yl)oxetan-3-yl)pyridin-3-yl)-N-((1-(trifluoromethyl)cyclobutyl)methyl)piperidin-3-amine] | ≤ 500 | 500 to 5000

Second part, the compound before the results:

Row | Structure (SMILES) | IC50 [1] [nM] | IC50 (Caov-3 cells) [nM] | IC50 (Kasumi-1 cells) [nM]
4 | CC(C)CN[C@@H]1CCCN(c2ccc(C3(n4cc(-c5cncc(C6CC6)c5)nn4)COC3)nc2)C1 [Compound 329, (R)-1-(6-(3-(4-(5-cyclopropylpyridin-3-yl)-1H-1,2,3-triazol-1-yl)oxetan-3-yl)pyridin-3-yl)-N-isobutylpiperidin-3-amine] | ≤ 50 | ≤ 500 | ≤ 500
5 | O=C(Nc1cc(=O)n2ccccc2n1)C1(c2ccc(N3CCC[C@@H](NCC4(F)CC4)C3)cn2)COC1 [Compound 330, (R)-3-(5-(3-(((1-fluorocyclopropyl)methyl)amino)piperidin-1-yl)pyridin-2-yl)-N-(4-oxo-4H-pyrido[1,2-a]pyrimidin-2-yl)oxetane-3-carboxamide] | ≤ 50 | 500 to 5000 | 500 to 5000
6 | CC1(CN[C@@H]2CCCN(c3ccc(C4(C(=O)Nc5cc(=O)n6ccccc6n5)COC4)nc3)C2)CC1 [Compound 331, (R)-3-(5-(3-(((1-methylcyclopropyl)methyl)amino)piperidin-1-yl)pyridin-2-yl)-N-(4-oxo-4H-pyrido[1,2-a]pyrimidin-2-yl)oxetane-3-carboxamide] | ≤ 50 | ≤ 500 | ≤ 500
7 | FC1(CN[C@@H]2CCCN(c3ccc(C4(n5cc(-c6cncc(C7CC7)c6)nn5)COC4)nc3)C2)CC1 [Compound 332, (R)-1-(6-(3-(4-(5-cyclopropylpyridin-3-yl)-1H-1,2,3-triazol-1-yl)oxetan-3-yl)pyridin-3-yl)-N-((1-fluorocyclopropyl)methyl)piperidin-3-amine] | ≤ 50 | ≤ 500 | ≤ 500
8 | CC1(CN[C@@H]2CCCN(c3ccc(C4(n5cc(-c6cncc(C7CC7)c6)nn5)COC4)nc3)C2)CC1 [Compound 333, (R)-1-(6-(3-(4-(5-cyclopropylpyridin-3-yl)-1H-1,2,3-triazol-1-yl)oxetan-3-yl)pyridin-3-yl)-N-((1-methylcyclopropyl)methyl)piperidin-3-amine] | ≤ 50 | ≤ 500 | ≤ 500
9 | c1ncc(C2CC2)cc1-c1cn(C2(c3ccc(N4CCC[C@@H](NC5CCC5)C4)cn3)COC2)nn1 [Compound 334, (R)-N-cyclobutyl-1-(6-(3-(4-(5-cyclopropylpyridin-3-yl)-1H-1,2,3-triazol-1-yl)oxetan-3-yl)pyridin-3-yl)piperidin-3-amine] | ≤ 50 | ≤ 500 | ≤ 500
10 | FC(F)(F)C1(CN[C@@H]2CCCN(c3ccc(C4(n5cc(-c6cncc(C7CC7)c6)nn5)COC4)nc3)C2)CC1 [Compound 335, (R)-1-(6-(3-(4-(5-cyclopropylpyridin-3-yl)-1H-1,2,3-triazol-1-yl)oxetan-3-yl)pyridin-3-yl)-N-((1-(trifluoromethyl)cyclopropyl)methyl)piperidin-3-amine] | ≤ 50 | ≤ 500 | 500 to 5000
